Measurements as given in the supplement of paper PMC8633005.

Experiments:
Test in all cases: drug sensitivity score (DSS) (DSS (unitless, 0-50 scale)); higher = more sensitive (stronger viability inhibition); extreme values may be limits of the assay
Conditions in all cases: 72 h; culture: 2D
[1] = tested on: FM-MEL-2
In short: (§1)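 Viability was measured by CellTiter-Glo luminescence after 72 h at 37 °C in 384-well plates holding a 527-compound oncology library, with patient-derived melanoma cultures (1000–1500 cells per well) and melanoma cell lines grown in 2D. Every compound was tested at five concentrations spanning a 10,000-fold range. The drug sensitivity score, a modified area under the curve, came from dose-response curves fitted with in-house Breeze software.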

[2] = tested on: Bowes
In short: as §1

[3] = tested on: WM852
In short: as §1

[4] = tested on: FM-MEL-6
In short: as §1

[5] = tested on: SK-MEL-2
In short: as §1

[6] = tested on: SK-MEL-28
In short: as §1

[7] = tested on: WM165
In short: as §1

[8] = tested on: FM-MEL-3
In short: as §1

SMILES	drug sensitivity score [1]	drug sensitivity score [2]	drug sensitivity score [3]	drug sensitivity score [4]	drug sensitivity score [5]	drug sensitivity score [6]	drug sensitivity score [7]	drug sensitivity score [8]
C[C@@H]1CCN(C(=O)CC#N)C[C@@H]1N(C)c1ncnc2[nH]ccc12 [Tofacitinib]	0	0	0	0	0	0	0	0
CC[C@@]1(O)C(=O)OCc2c1cc1n(c2=O)Cc2cc3c(CN(C)C)c(O)ccc3nc2-1 [Topotecan]	6.1	6.8	1.4	8.1	8.2	8.1	25.3	11
CN(C)CCOc1ccc(/C(=C(/CCCl)c2ccccc2)c2ccccc2)cc1 [Toremifene]	5.8	1.1	3.4	6	1.6	4.4	4.3	7.8
CC(C)C[C@@H](C(=O)N[C@H](C(=O)OC1CCCC1)c1ccccc1)[C@H](O)C(=O)NO [Tosedostat]	6.3	1.4	0.7	7.9	5.3	6.7	6.8	6.3
Cc1cc(Nc2cc(N3CCN(C)CC3)nc(Sc3ccc(NC(=O)C4CC4)cc3)n2)n[nH]1 [Tozasertib]	1.9	11.7	3.5	2.7	2.8	5.1	12.8	4.5
CC1=C(/C=C/C(C)=C/C=C/C(C)=C/C(=O)O)C(C)(C)CCC1 [Tretinoin]	0	5.7	0	0.8	0	0	0	0.7
NC(=S)N/N=C/c1ncccc1N [Triapine]	0.4	1.9	0	3.2	0	2.5	5.3	0.6
O=c1[nH]c(=O)n([C@H]2C[C@H](O)[C@@H](CO)O2)cc1C(F)(F)F [Trifluridine]	0	0	0	0.8	0	2.7	3.5	0.1
O=C(CCCCCCC(=O)Nc1ccc([C@H]2O[C@@H](CSc3nc(-c4ccccc4)c(-c4ccccc4)o3)C[C@@H](c3ccc(CO)cc3)O2)cc1)NO [Tubacin]	0.9	4.9	3.9	0.2	0.8	0	4.7	0
CN1CCc2c(c3ccccc3n2Cc2ccc(C(=O)NO)cc2)C1 [Tubastatin A]	0.6	2	0	0	1	1.3	2.2	0.6
Cc1cc(Nc2ncnc3ccc(NC4=NC(C)(C)CO4)cc23)ccc1Oc1ccn2ncnc2c1 [Tucatinib]	0.4	0	0	0	0	0	0	0
Nc1cc(F)ccc1NC(=O)c1ccc(CNC(=O)/C=C/c2cccnc2)cc1 [Tucidinostat]	5.1	1.9	0	7.2	5	5.6	7.8	7.7
CN[C@@H]1C[C@H]2O[C@@](C)([C@@H]1OC)n1c3ccccc3c3c4c(c5c6ccccc6n2c5c31)C(=O)N[C@H]4O [UCN-01]	13.5	17.5	19.9	14.5	16.2	13.4	23.5	24.7
COC(=O)c1ccc2c(c1)[nH]c1ncnc(NCCCN3CCCCC3)c12 [UM729]	1	0	0	0	0	0.6	0	2.5
COc1cc2c(NC3CCN(C(C)C)CC3)nc(C3CCCCC3)nc2cc1OCCCN1CCCC1 [UNC0638]	6.9	6.6	5.9	2.8	5.9	5.8	5.8	4.4
COc1cc2c(NC3CCN(C(C)C)CC3)nc(N3CCC(F)(F)CC3)nc2cc1OCCCN1CCCC1 [UNC0642]	4.5	4	5.1	2.5	4.1	2	4.5	0.7
O=C(c1ccc(C(=O)N2CCC(N3CCCC3)CC2)c(Nc2ccccc2)c1)N1CCC(N2CCCC2)CC1 [UNC1215]	0	0	0	0	0	0	0	0
CCCCNc1ncc(C(=O)NCc2ccc(-n3ccnc3)cc2)c(NC2CCC(O)CC2)n1 (stereo not given) [UNC2881]	2.2	0	0	0	0	0	0	0
NC(=O)c1cccc(-c2cccc(OC(=O)NC3CCCCC3)c2)c1 [URB597]	0	0	0	0	0	0	0	0
CC[C@@H]1CN(C(=O)NCC(F)(F)F)C[C@@H]1c1cnc2cnc3[nH]ccc3n12 [Upadacitinib]	3.6	0	2.1	3.6	0	0.3	0	3.1
